How the values were obtained:
[1] = target: T1, acyl-CoA: cholesterol acyltransferase (ACAT) (Oryctolagus cuniculus, UniProt G1SFD9); assay: In vitro inhibition of ACAT (acylation of cholesterol by oleic acid) in rabbit intestinal microsomes; type: biochemical; conditions: radiolabeled oleic acid
T1 construct: tissue preparation containing rabbit intestinal microsomes; from tissue; host or cells: rabbit intestinal microsomes
T1 sequence (G1SFD9 1-524): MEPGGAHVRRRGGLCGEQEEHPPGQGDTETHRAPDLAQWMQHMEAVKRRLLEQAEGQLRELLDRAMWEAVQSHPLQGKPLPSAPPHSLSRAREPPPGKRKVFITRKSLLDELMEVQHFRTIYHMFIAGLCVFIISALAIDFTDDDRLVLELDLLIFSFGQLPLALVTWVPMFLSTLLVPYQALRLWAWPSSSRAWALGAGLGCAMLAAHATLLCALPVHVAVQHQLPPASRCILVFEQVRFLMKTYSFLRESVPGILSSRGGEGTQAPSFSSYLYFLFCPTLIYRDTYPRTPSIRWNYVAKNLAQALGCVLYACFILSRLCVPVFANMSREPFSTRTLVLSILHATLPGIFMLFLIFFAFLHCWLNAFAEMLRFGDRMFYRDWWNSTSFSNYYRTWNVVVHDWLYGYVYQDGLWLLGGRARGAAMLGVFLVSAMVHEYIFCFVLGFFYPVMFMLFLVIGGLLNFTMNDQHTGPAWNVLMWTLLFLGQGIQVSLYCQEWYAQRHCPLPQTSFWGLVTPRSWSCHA
Experimental: The ability of representative compounds of the present invention to inhibit ACAT was measured using an in vitro test more fully described in Field, F. J. and Salone, R. G., Biochemica et Biophysica, 712:557-570 (1982). The test assesses the ability of a test compound to inhibit the acylation of cholesterol by oleic acid by measuring the amount of radiolabeled cholesterol […] formed from radiolabeled oleic acid in a tissue preparation containing rabbit intestinal microsomes. The data appear in Table 1 where they are expressed in IC50 values; i.e., the concentration of test compound required to inhibit 50% expression of the enzyme.

[2] = In vivo screen designated APCC, cholesterol in rats fed PCC diet with cholic acid; set-up: species or system male Sprague-Dawley rats; conditions: blood cholesterol; PCC diet with 1% or 0.5% cholic acid; dosed at 4 PM, sacrificed at 8 AM; dose not stated
Excerpt: In one in vivo screen designated APCC, male Sprague-Dawley rats (200 to 225 g) were randomly divided into treatment groups and dosed at 4 PM with either vehicle (CMC/Tween) or suspensions of compounds in vehicle. The normal, chow diet was then replaced with the PCC diet with either 1% or 0.5% cholic acid, as indicated. The rats consumed this diet ad libitum during the night and were sacrificed at 8 AM to obtain blood samples for cholesterol analysis using standard procedures. Statistical differences between mean cholesterol values for the same vehicle were determined using analysis of variance followed by Fisher's least significant test.

Compound | IC50 [1] | % Change [2]
CCCC(CCC)(CNC(=O)Nc1c(C(C)C)cccc1C(C)C)NC(=O)c1ccc(OC)cc1 [Example 4] | 96 nM | 
COc1ccc(C(=O)NC2(CNC(=O)Nc3c(C(C)C)cccc3C(C)C)CCCC2)cc1 [Example 5, N-[1-[[[[[2,6-bis(1-methylethyl)phenyl]amino]carbonyl]amino]methyl]cyclopentyl]-4-methoxybenzamide] | 510 nM | 
COc1ccc(CN[C@H](CNC(=O)Nc2c(C(C)C)cccc2C(C)C)CC(C)C)cc1 [Example 6, (S)-(-)-N-[2,6-bis(1-methylethyl)phenyl]-N'-[2-[[(4-methoxyphenyl)methyl]amino]-4-methyl-pentyl]urea] | 57 nM | -25%
COc1ccc(CN[C@@H](CCSC)CNC(=O)Nc2c(C(C)C)cccc2C(C)C)cc1 [Example 7, (S)-(-)-N-[2,6-Bis(1-methylethyl)phenyl]-N'-[2-[[(4-methoxyphenyl)methyl]amino]-4-(methylthio)butyl]urea] |  | -31%
COc1ccc(CN[C@H](CNC(=O)Nc2c(C(C)C)cccc2C(C)C)C(C)C)cc1 [Example 8, (S)-(-)-N[2,6-Bis(1-methylethyl)phenyl]-N'-[2-[[(4-methoxyphenyl]methyl]amino]-3-methylbutyl]urea] | 85 nM | -17%
COc1ccc(CN[C@H](CNC(=O)Nc2c(C(C)C)cccc2C(C)C)Cc2ccccc2)cc1 [Example 9, (S)-(-)-N-[2,6-Bis(1-methylethyl)phenyl]-N'-[2-[[(4-methoxyphenyl)methyl]amino]-3-phenylpropyl]urea] |  | -33%
CC(C)c1cccc(C(C)C)c1NC(=O)NC[C@H](Cc1ccccc1)NCc1ccccc1O [Example 10] |  | -46%
